Measured values: PMC3284447, “In vivo antinociception of potent mu opioid agonist tetrapeptide analogues and comparison with a compact opioid agonist - neurokinin 1 receptor antagonist chimera” (Molecular Brain, 2012)
“Also recorded” adds a separate entry of the source.

Assays:
hNK1R = conditions: [^3H]-SP, hNK1-CHO membranes; means ± SEM of three independent experiments; one site competition fitting; cited from earlier work
From the text: Table 1 In vitro functional activities and affinities of opioid- and opioid-NK1 ligands | column: hNK1R Ki (nM)^b

DOR [1] = test system: DOR; parameters: method as in PMID 21413804; conditions: MVD tissue bioassay; means of 3-6 experiments ± SEM; cited from earlier work
DOR [2] = test: MVD (mouse vas deferens) tissue bioassay, DOR-representative; conditions: SBCHM01 compared to AN81, MVD EC50
From the text: Aba: 4-amino-1,2,4,5-tetrahydro-2-benzazepin-3-on; BBB: blood-brain barrier; CNS: central nervous system; DML: designed multiple ligand; Dmt: 2',6'-dimethyl-(S)-tyrosine; DOR: δ-opioid receptor; GPI: Guinea pig ileum; KOR: κ-opioid receptor; MOR: μ-opioid receptor; MPE: maximal possible effect; MVD: mouse vas deferens; NK1: neurokinin 1.

male C57Bl6 mice [3] = test: hot water tail-flick test, tolerance after daily i.v. administration for 5 days; format: in vivo, mouse
Experimental: (§1) Nociceptive responses to thermally-induced pain were assessed by the hot water tail-flick test using male C57Bl6 mice. Animals (weighing 25-28 g) were maintained on a normal light-dark cycle and testing occurred during the light cycle. Mice were injected intravenously (i.v.) with the examined drug, dissolved in saline, at different doses. For the verification of drug-induced antinociceptive tolerance, the investigated compounds were administered (i.v.) once per day for 5 days (2 and 4 mg/kg for SBCHM01 and 4 mg/kg for both AN81 and BVD03) and the analgesic effect was measured on the first and the fifth day of the experiment. In each case (both acute and chronic treatment) the effect was measured over a minimum time period of 120 minutes. The antinociceptive effect was measured in triplicate at the following time points post-injection: 5, 15, 30, 60, 120 min (and 180 min for SBCHM01; due to the strong and long-lasting analgesic effect produced by AN81 (Figure 2C), there was no possibility to prolong the experiment, which - if prolonged - could in consequence cause major damage to the animal's tail, thus giving spurious nociceptive responses). Responses to thermal hot stimulus were assessed by the latency with which the mouse removed its tail from 55°C water. A cut-off time of 10 s was used in order to prevent tissue damage.
(§2) In order to compare the antinociceptive effect induced by the examined drugs, morphine was used as a standard reference.
(§3) Data are presented as means ± standard errors of the mean (SEM). All of the calculations and statistical analysis were performed using Prism 5.0 (Graph Pad Software, San Diego, CA, USA). The nociceptive scores were analyzed using a two-way Anova with Bonferroni's post hoc test. The p value (the value of probability) as well as inferential statistics - F test, which include information about the obtained magnitude or value of the test statistic and degrees of freedom, are represented.

DOR [4] = target: DOR; parameters: method as in PMID 21413804; conditions: [^3H]DSLET, rat brain membrane; cited from earlier work
DOR [5] = test: DOR binding, displacement of [^3H]DSLET from rat brain membranes; conditions: SBCHM01 compared to AN81, Ki
male C57Bl6 mice [6] = test: hot water tail-flick test, acute antinociception after i.v. administration; format: in vivo, mouse; conditions: i.v.; for %MPE: 120 min, ± SEM
Experimental: as §1, §2, §3

NK1R = conditions: calculated using the Schild's equation; cited from earlier work
From the text: Table 1 In vitro functional activities and affinities of opioid- and opioid-NK1 ligands | column: NK1R pA2^a

MOR [7] = test system: MOR; parameters: method as in PMID 21413804; conditions: GPI tissue bioassay; means of 3-6 experiments ± SEM; cited from earlier work
KOR = conditions: [^3H]U69,593, guinea pig brain membrane; cited from earlier work
From the text: Table 1 In vitro functional activities and affinities of opioid- and opioid-NK1 ligands | column: KOR Ki (nM)^e, f

MOR [8] = target: MOR; parameters: method as in PMID 21413804; conditions: [^3H]DAMGO, rat brain membrane; cited from earlier work
MOR [9] = test system: MOR; parameters: method as in PMID 8981054, PMID 7712029; conditions: cited from earlier work
rodents = conditions: administered centrally or peripherally in rodents; cited from earlier work
From the text: From our previous results, we selected three opioid tetrapeptides with promising in vitro potency for further in vivo evaluation. […] We recently identified the opioid ligands H-Dmt-NMe-D ...

Substance | Ki (hNK1R) | EC50 (DOR [1]) | fold decrease in DOR potency vs AN81 (DOR [2]) | tolerance development after repetitive administration (male C57Bl6 mice [3]; daily for 5 days, i.v. (morphine i.p.), measured on day 5) | %MPE (male C57Bl6 mice [3]; day 1, i.v., 2 mg/kg, 3 h, ± SEM) | potency at 180 min (male C57Bl6 mice [3]; day 1, SBCHM01 2 mg/kg i.v., morphine 4 mg/kg i.p.) | antinociceptive activity on the fifth day (male C57Bl6 mice [3]; day 5, i.v., 2 mg/kg daily, up to 3 h) | %MPE (male C57Bl6 mice [3]; day 5, i.v., 4 mg/kg daily, 30 min, ± SEM (AN81 7-10 animals, p < 0.001; SBCHM01 8-10 mice)) | Ki (DOR [4]) | fold decrease in DOR binding vs AN81 (DOR [5]) | %MPE (male C57Bl6 mice [6]; 2 mg/kg, first day of treatment) | %MPE (male C57Bl6 mice [6]; 4 mg/kg, vs morphine: BVD03 p < 0.05, SBCHM01 p > 0.05) | antinociceptive activity relative to morphine (male C57Bl6 mice [6]; 4 mg/kg, whole period of measurements, morphine i.p. same dose) | synergistic or potentiating effect of combined pharmacophores (male C57Bl6 mice [6]; opioid and NK1 pharmacophores in a single entity) | NK1R pA2 (NK1R) | EC50 (MOR [7]) | Ki (KOR) | Ki (MOR [8]) | affinity and selectivity for the MOR (MOR [9]) | tolerance development compared to morphine (rodents)
H-Dmt-D-Arg-Aba-Gly-NMe-3',5'-Bn(CF3)2 [SBCHM01] | 0.5 ± 0.1 nM | 43.3 ± 6.3 nM | 103 fold | could not circumvent opioid induced tolerance; also recorded: mice had developed opioid-induced tolerance; also recorded: lower dose of SBCHM01 does not reduce the extent of tolerance development; also recorded: complete loss in antinociception on the fifth day of the experiment; also recorded: lost its antinociceptive potency completely upon chronic injection | 71.13 ± 4.71% | decrease in potency is clearly visible | Complete abolishment of SBCHM01's antinociceptive activity on the fifth day | 12.25 ± 7.33% | 10.4 ± 0.6 nM | 17 fold | 85.12 ± 5.43% | 80.47 ± 5.29% | slightly weaker during the whole period of measurements | neither an synergistic nor potentiating antinociceptive effect appears | 7.8 | 8.51 ± 0.62 nM | 445 ± 81 nM | 0.416 ± 0.012 nM |  | 
H-Tyr-D-Ala-Phe-Gly-Tyr-Pro-Ser-NH2 [dermorphin] |  |  |  |  |  |  |  |  |  |  |  |  |  |  |  |  |  |  | high affinity and selectivity for the MOR | induces less tolerance development when compared to morphine
